Assay results from patent publication US11226337B2, “Chemoproteomic profiling of protein electrophilic and oxidative post-translational modifications” (Zenagem, LLC, priority 2017, dated 2022).

Legend:
[1] = molecular target: T1, AMD1 (Homo sapiens, UniProt P17707); settings: literature statement; cited from earlier work
T1 construct: Full-length genes encoding three probe 1- and one probe 2-targeted proteins were amplified from a cDNA library; expressed in transfected cells; host or cells: HEK293T
T1 sequence (P17707 68-334 limits assumed): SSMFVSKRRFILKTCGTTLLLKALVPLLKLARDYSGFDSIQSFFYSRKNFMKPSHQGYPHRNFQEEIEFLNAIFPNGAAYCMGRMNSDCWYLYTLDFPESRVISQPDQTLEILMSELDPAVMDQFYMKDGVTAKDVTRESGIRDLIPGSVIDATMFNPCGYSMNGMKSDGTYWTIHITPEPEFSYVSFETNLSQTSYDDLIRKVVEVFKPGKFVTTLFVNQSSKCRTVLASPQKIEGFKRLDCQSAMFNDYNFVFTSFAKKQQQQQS
T1 sequence (P17707 1-67 limits assumed): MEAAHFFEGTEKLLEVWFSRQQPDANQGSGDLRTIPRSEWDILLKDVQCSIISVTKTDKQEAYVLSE

[2] = molecular target: T1, AMD1; test: expression and probe 1 labelling of endogenous AMD1 after DFMO; type: cell-based; settings: HEK293T, DFMO 5 mM 48 h, 10 μM L-methionine
Procedure: To enhance expression and labelling of endogenous AMD1, HEK293T cells were treated with difluoromethylornithine (DFMO; purchased from Santa Cruz Biotechnology) (5 mM) for 48 h in RPMI 1640 media (Fisher Scientific, A14517-01) containing 10 μM L-methionine. Cells were washed and treated with probe 1 in the absence of methionine. […] Probe 1-labelling, proteome preparation, fluorophore conjugation, gel-based analysis and western blotting were performed as described above in Examples 2 and 3. Band intensities were quantified using ImageJ software^75. […] Briefly, about 0.5 mg soluble proteomes isolated from probe 1-labelled AMD1-transfected cells grown in low versus high methionine were each diluted to 1 mL with 50 mM Na-HEPES buffer (pH 7.5) supplemented with 500 mM NaCl and 1% Triton X-100. Each proteome was incubated overnight at 4° C. by rotation with a pre-equilibrated slurry (25 μL resin (CV), anti-FLAG M2 affinity gel, Sigma). The resin was washed by resuspension and centrifugation with the same buffer supplemented with 500 mM NaCl (5×1 mL) followed by 100 mM NaCl (2×1 mL). The bound AMD1 protein was eluted in 100 μL of low salt buffer containing […] (FLAG)3 peptide [DYKDHD-(G)-DYKDHD-(I)-DYKD4K] (SEQ ID NO: 47). To prevent contamination from the excess (FLAG)3 peptide in the elution, the protein was purified by gel. […]

difluoromethylornithine [DFMO]
effect on expression of AMD1 [1]: increase the expression of AMD1 | change in endogenous active AMD1 detected by probe 1 [2]: DMFO-induced changes in the endogenous concentration of active AMD1
